The source of these data is publication PMC8683085, “Serine ADP-ribosylation marks nucleosomes for ALC1-dependent chromatin remodeling” (eLife, 2021).

Assay [1] deals with T1, ALC1 macrodomain (Homo sapiens, UniProt Q86WJ1).
T1 construct: A fragment encoding amino acids 636–878, corresponding to the macrodomain; 6xHis-SUMO (N, cleaved yes); made in house; host or cells: E. coli Rosetta2 (DE3)
T1 sequence (Q86WJ1 636-878): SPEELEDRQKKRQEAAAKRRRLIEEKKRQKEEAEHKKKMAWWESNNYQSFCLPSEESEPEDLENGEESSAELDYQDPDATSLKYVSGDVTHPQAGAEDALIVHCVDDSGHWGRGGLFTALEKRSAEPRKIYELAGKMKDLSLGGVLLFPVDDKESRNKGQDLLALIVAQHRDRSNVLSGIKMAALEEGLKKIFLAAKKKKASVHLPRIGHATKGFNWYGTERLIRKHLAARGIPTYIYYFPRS
The assay can be described thus: Fluorescence polarization binding of fluorescein-labeled ADP-ribosylated histone peptides to the ALC1 macrodomain. As to the method:
Each fluorescently-labeled H2B (unmodified, mono-, di-, tri-, and tetra-ADP-ribose at H2BS6) and H3 peptide (unmodified, mono-, di-, tri-, tetra-, or penta-ADP-ribose at H3S10) was diluted to 2 nM in a buffer containing 25 mM Tris, pH 7.5, 100 mM NaCl, 2 mM MgCl2, 0.001% Triton X100, and 1 mM DTT. Note, H3 elongates more efficiently than H2B and so the penta-ADP-ribosylated species could be isolated for this peptide. Peptide concentration was calculated via fluorescein extinction coefficient (A480 = 70,000). To analyze peptide:pan-ADP-ribose detection reagent (Af1521 macrodomain fused to rabbit Fc tag, MilliporeSigma) interaction, the pan-ADP-ribose detection reagent was titrated into each peptide to final concentrations ranging from 0 to 2000 nM (points represent 3 x dilutions starting from 2000 nM; a higher concentration of 4000 nM was also included for mono- and di-ADP-ribosylated peptides). To analyze peptide:ALC1-macrodomain interaction, the ALC1-macrodomain was titrated into each peptide to final concentrations ranging from 0 to 3000 nM (points represent 3 x dilutions starting from 3000 nM). Reactions were added to a black, flat-bottom 96-well plate (Corning Costar) and analyzed on a BioTek Cytation five imager equipped with a Green FP filter set (excitation: 485 nm, emission: 528 nm). […]
Background: In fluorescence polarisation assays a small probe gives low polarisation when free and higher when bound to something large.

Assay [2] has as its target T2, Af1521 macrodomain (fused to rabbit Fc tag) (Archaeoglobus fulgidus, UniProt O28751).
T2 construct: Af1521 macrodomain fused to rabbit Fc tag, MilliporeSigma; purchased MilliporeSigma
T2 sequence (O28751 1-192): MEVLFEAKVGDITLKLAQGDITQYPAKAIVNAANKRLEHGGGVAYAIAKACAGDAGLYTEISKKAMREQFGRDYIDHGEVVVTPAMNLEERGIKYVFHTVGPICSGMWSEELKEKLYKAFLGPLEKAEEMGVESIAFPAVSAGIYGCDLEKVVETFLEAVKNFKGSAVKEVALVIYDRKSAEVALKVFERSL
The assay can be described thus: Fluorescence polarization binding of fluorescein-labeled ADP-ribosylated histone peptides to the Af1521 macrodomain (pan-ADP-ribose detection reagent). The following applies: fluorescein-labeled peptide 2 nM, reagent titrated 0-2000 nM (4000 nM for mono-/di-ADPr), 25 mM Tris pH 7.5, 100 mM NaCl, 2 mM MgCl2, 0.001% Triton X100, 1 mM DTT, one-site specific binding fit, n = 3, read-out: Kd,app.

Assay [3] concerns the target T3, ALC1 (Homo sapiens, UniProt Q86WJ1).
T3 sequence (Q86WJ1 1-897): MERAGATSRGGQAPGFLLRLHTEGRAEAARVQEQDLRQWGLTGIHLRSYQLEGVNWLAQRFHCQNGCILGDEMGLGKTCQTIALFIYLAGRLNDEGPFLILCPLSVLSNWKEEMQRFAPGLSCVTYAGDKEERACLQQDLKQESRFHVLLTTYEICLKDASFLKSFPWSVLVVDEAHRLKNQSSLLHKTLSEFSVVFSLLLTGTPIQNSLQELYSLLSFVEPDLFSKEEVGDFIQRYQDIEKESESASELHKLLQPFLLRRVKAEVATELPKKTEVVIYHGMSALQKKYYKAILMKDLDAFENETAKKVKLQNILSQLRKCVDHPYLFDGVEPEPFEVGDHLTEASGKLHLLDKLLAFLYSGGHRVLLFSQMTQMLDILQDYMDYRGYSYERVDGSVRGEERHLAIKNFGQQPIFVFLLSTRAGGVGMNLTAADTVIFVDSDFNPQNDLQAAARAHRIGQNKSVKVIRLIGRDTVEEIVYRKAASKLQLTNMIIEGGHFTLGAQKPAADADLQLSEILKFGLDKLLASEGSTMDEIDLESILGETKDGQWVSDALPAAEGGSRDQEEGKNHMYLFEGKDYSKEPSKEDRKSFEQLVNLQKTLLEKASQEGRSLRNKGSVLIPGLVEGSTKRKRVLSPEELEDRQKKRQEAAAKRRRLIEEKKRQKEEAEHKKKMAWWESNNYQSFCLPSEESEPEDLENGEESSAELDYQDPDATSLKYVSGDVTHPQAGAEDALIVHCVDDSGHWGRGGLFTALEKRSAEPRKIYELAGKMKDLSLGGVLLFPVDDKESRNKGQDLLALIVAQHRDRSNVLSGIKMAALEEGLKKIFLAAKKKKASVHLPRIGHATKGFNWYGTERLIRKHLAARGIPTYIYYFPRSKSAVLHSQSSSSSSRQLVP
The assay can be described thus: Restriction enzyme accessibility (REA) nucleosome remodeling assay, single substrate, recombinant ALC1. It is filed as biochemical. The following applies: for k, ALC1 remodeling rate constant on unmodified nucleosome in the presence of free ADP-ribosylated peptide: REA assay, 4 nM ALC1, unmodified nucleosome 20 nM, peptide 40 nM, 2 mM ATP, one-phase exponential decay fit, n = 3. As to the method: REA assays and analysis were performed as previously described ([Dann et al., 2017]) with several modifications. Nucleosome remodeling reactions (25 μL) were carried out in REA Buffer (12 mM HEPES, pH 7.9, 4 mM Tris, pH 7.5, 60 mM KCl, 10 mM MgCl2, 10% glycerol, and 0.02% NP-40) including 1 μL of PstI (NEB, at 100,000 U/mL), 2 mM ATP (Sigma-Aldrich), and final concentrations of 4 nM ALC1 or 10 nM CHD4 and 20 nM of the desired nucleosome substrate. The reaction was incubated for 5 min prior to addition of chromatin remodeler to ensure that any trace amount of free DNA from the nucleosome assembly was digested prior to initiating the reaction. This is required to ensure that free DNA digestion can be assigned as background activity and is not interpreted as enzyme-dependent nucleosome remodeling in data processing. To each reaction, 37.5 μL of Quench Buffer (20 mM Tris, pH 7.5, 70 mM EDTA, pH 8, 2% SDS, 10% glycerol) was added at time points of 0, 3, 6, 18, 36, and 60 min. Samples were then deproteinized with 30 U/mL proteinase K (NEB) for 1 h at 37 °C. DNA purification was performed using the Qiagen PCR purification kit following manufacturer’s protocols. Purple Gel Loading Dye (6 X, NEB) was added to a final concentration of 1 X to the quenched reaction and samples were loaded onto a 5% TBE gel and run for 60 min at 150 volts in 0.5 X TBE Buffer (BioRad). Gels were stained with ethidium bromide and imaged on a BioRad ChemiDoc. Gel densitometry measurements were performed using ImageJ. For each lane, the total densitometry signal was calculated by adding the densitometry values corresponding to the PstI-digested species (lower band) and undigested species (upper band). The fraction unremodeled value for each lane was then calculated using the following formula: fraction unremodeled= signalundigested/signalundigested+ signaldigested […]

Assay [4] addresses T1, ALC1 macrodomain. The settings on record: free ADP-ribose molecules; ref Singh et al., 2017; cited from earlier work. The text has this:
We therefore chose to pursue ALC1 for our initial ADP-ribosylated histone peptide interaction studies. Nine fluorescently-labeled, ADP-ribosylated histone peptides (H2BS6ADPr1-4 and H3S10ADPr ...

Read-outs that look alike come from different tables or passages of the source.

For the molecule `CC(C)C[C@H](NC(=O)[C@H](CCC(N)=O)NC(=O)[C@H](CCCCN)NC(=O)[C@H](CCCNC(=N)N)NC(=O)[C@@H]1CCCN1C(=O)[C@H](C)NC(=O)[C@H](CCCCN)NC(=O)CNC(=O)CNC(=O)[C@@H](NC(=O)[C@H](CO[C@H]1O[C@H](COP(=O)(O)OP(=O)(O)OC[C@H]2O[C@@H](n3cnc4c(N)ncnc43)[C@H](O[C@H]3O[C@H](COP(=O)(O)OP(=O)(O)OC[C@H]4O[C@@H](n5cnc6c(N)ncnc65)[C@H](O[C@H]5O[C@H](COP(=O)(O)OP(=O)(O)OC[C@H]6O[C@@H](n7cnc8c(N)ncnc87)[C@H](O[C@H]7O[C@H](COP(=O)(O)OP(=O)(O)OC[C@H]8O[C@@H](n9cnc%10c(N)ncnc%109)[C@H](O[C@H]9O[C@H](COP(=O)(O)OP(=O)(O)OC[C@H]%10O[C@@H](n%11cnc%12c(N)ncnc%12%11)[C@H](O)[C@@H]%10O)[C@@H](O)[C@H]9O)[C@@H]8O)[C@@H](O)[C@H]7O)[C@@H]6O)[C@@H](O)[C@H]5O)[C@@H]4O)[C@@H](O)[C@H]3O)[C@@H]2O)[C@@H](O)[C@H]1O)NC(=O)[C@H](CCCCN)NC(=O)[C@H](CCCNC(=N)N)NC(=O)[C@H](C)NC(=O)[C@@H](NC(=O)[C@H](CCC(N)=O)NC(=O)[C@H](CCCCN)NC(=O)[C@@H](NC(=O)[C@H](CCCNC(=N)N)NC(=O)[C@H](C)NC(=O)c1ccc2c(c1)C(=O)OC21c2ccc(O)cc2Oc2cc(O)ccc21)[C@@H](C)O)[C@@H](C)O)[C@@H](C)O)C(N)=O` [H3S10ADPr5 peptide], the values for the Kd in assay [1] and in assay [2] were 27.9 nM and 42.5 nM, respectively.
Take “H2BS6ADPr4 peptide: H2B (1-16) peptide with tetra-ADP-ribose at S6; fluorescein-labeled in FP assays ({5(6)‑carboxyfluorescein}-PEPAKS(tetra‑ADP‑ribose)APAPKKGSKK-NH2)”: the “k, ALC1 remodeling rate constant on unmodified nucleosome in the presence of free ADP-ribosylated peptide” value in assay [3] is 1.886e-05 min⁻¹.
Regarding “H3S10ADPr4 peptide: H3 (1–20) peptide with tetra-ADP-ribose at S10; fluorescein-labeled in FP assays”, in assay [3] (ALC1, unmodified nucleosome 20 nM, peptide 10, 40 or 200 nM), the “stimulation of ALC1-dependent remodeling of unmodified nucleosomes by the freely diffusing peptide” value was “unable to appreciably stimulate”. The “k, ALC1 remodeling rate constant on unmodified nucleosome in the presence of free ADP-ribosylated peptide” value in assay [3] came to 8.323e-05 min⁻¹.
As to tri-ADP-ribose, the Kd in assay [4] was around 10 nM.
